From US20260200928A1, “THERAPEUTIC COMPOUNDS” (Sanofi, priority 2022, published 2026)

What follows are molecules tested against T1, human IL-17A (Homo sapiens, UniProt Q16552) (assay: IL-17A AlphaLISA competition assay (block of IL-17A binding to its receptor IL-17RA)). Conditions: mean IC50 (n≥2), block of IL-17A binding to IL-17RA.
T1 construct: purchased R&D Systems 7955-IL/CF
T1 sequence (Q16552 24-155): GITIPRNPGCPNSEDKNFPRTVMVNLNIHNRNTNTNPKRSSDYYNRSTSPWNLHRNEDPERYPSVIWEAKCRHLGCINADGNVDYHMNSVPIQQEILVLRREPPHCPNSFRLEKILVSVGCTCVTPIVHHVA
Summary of the method: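 Bead-based AlphaLISA competition in PBS with 0.05% Tween-20 and 0.1% BSA: compound first meets human IL-17A (7.5 nM stock) for 30 min, then IL-17RA/Fc (5 nM stock) for 90 min, all at room temperature, before acceptor/donor bead capture. IC50 fitted 4-parameter, DMSO and 4 μM reference inhibitor as controls; at least duplicate.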

Structure (SMILES) | IC50 [nM]
Cn1nccc1C(=O)N[C@H](C(=O)Nc1cc(CC(=O)NCCC(F)(F)F)ccn1)C(C1CC1)C1CC1 [Example 31, (S)—N-(1,1-dicyclopropyl-3-oxo-3-((4-(2-oxo-2-((3,3,3-trifluoro-propyl)amino)ethyl)pyridin-2-yl)amino)propan-2-yl)-1-methyl-1H-pyrazole-5-carboxamide] | 5060
C[C@H]1CC[C@H]([C@H](NC(=O)c2nonc2C2CC2)C(=O)Nc2cc(C(CO)N3C[C@@H](C(F)(F)F)NC3=O)ccn2)CC1 (single isomer, unassigned) [Example 233, 4-Cyclopropyl-N-((1S)-2-((4-((R or S)-2-hydroxy-1-((S)-2-oxo-4-(trifluoro-methyl)imidazolidin-1-yl)ethyl)pyridin-2-yl)amino)-1-((1r,4S)-4-methylcyclohexyl)-2-oxoethyl)-1,2,5-oxadiazole-3-carboxamide] | 9
CC[C@H](c1ccnc(NC(=O)[C@@H](NC(=O)c2ccnn2C(C)C)C2CCC(F)(F)CC2)c1)N1C[C@@H](C(F)(F)F)NC1=O [Example 215, N-((S)-1-(4,4-difluorocyclohexyl)-2-oxo-2-((4-((R)-1-((S)-2-oxo-4-(trifluoromethyl)imidazolidin-1-yl)propyl)pyridin-2-yl)amino)ethyl)-1-isopropyl-1H-pyrazole-5-carboxamide] | 65
COCC(NC(=O)CCC(F)(F)F)c1ccnc(NC(=O)[C@@H](NC(=O)c2ccnn2C(C)C)C2CCC(F)(F)CC2)c1 (single isomer, unassigned) [Example 145] | 1360
COC[C@H](c1ccnc(NC(=O)[C@@H](NC(=O)c2nonc2C)C(C2CC2)C2CC2)c1)N1C[C@@H](C(F)(F)F)NC1=O [Example 226, N—((S)-1,1-Dicyclopropyl-3-((4-((S)-2-methoxy-1-((S)-2-oxo-4-(trifluoro-methyl)imidazolidin-1-yl)ethyl)pyridin-2-yl)amino)-3-oxopropan-2-yl)-4-methyl-1,2,5-oxadiazole-3-carboxamide] | 42
Cn1nccc1C(=O)N[C@H](C(=O)Nc1cc(C(C2CC2)N2C[C@@H](C(F)(F)F)NC2=O)ccn1)C1CCC(F)(F)CC1 (single isomer, unassigned) [Example 166, N-((1S)-2-((4-((R or S)-cyclopropyl((S)-2-oxo-4-(trifluoromethyl)imidazolidin-1-yl)methyl)pyridin-2-yl)amino)-1-(4,4-difluorocyclohexyl)-2-oxoethyl)-1-methyl-1H-pyrazole-5-carboxamide] | 50
CCc1nocc1C(=O)N[C@H](C(=O)Nc1cc([C@@H](COC)N2C[C@@H](C(F)(F)F)NC2=O)ccn1)C1CCC(Cl)CC1 (stereo partly drawn) [Example 317, N-((1S)-1-(4-chlorocyclohexyl)-2-((4-((S)-2-methoxy-1-((S)-2-oxo-4-(trifluoromethyl)imidazolidin-1-yl)ethyl)pyridin-2-yl)amino)-2-oxoethyl)-3-ethylisoxazole-4-carboxamide] | 19
COCC(c1ccnc(NC(=O)C(NC(=O)C(F)(F)c2ccnn2C)C2CCC(C)CC2)c1)N1CC(C(F)(F)F)NC1=O (single isomer, unassigned) [Example 248] | 54
CC[C@H](c1ccnc(NC(=O)[C@@H](NC(=O)c2ccnn2CC)C2CCC(F)(F)CC2)c1)N1C[C@@H](C(F)(F)F)NC1=O [Example 213, N-((S)-1-(4,4-difluorocyclohexyl)-2-oxo-2-((4-((R)-1-((S)-2-oxo-4-(trifluoromethyl)imidazolidin-1-yl)propyl)pyridin-2-yl)amino)ethyl)-1-ethyl-1H-pyrazole-5-carboxamide] | 28
C[C@@H]1CN(Cc2ccnc(NC(=O)[C@@H](NC(=O)OC(C)(C)C)[C@H]3CC[C@H](C)CC3)c2)C(=O)N1 [Example 30] | 479
CC(C)(OC[C@H](NC(=O)c1nonc1C1CC1)C(=O)Nc1cc(CN2C[C@@H](C(F)(F)F)NC2=O)ccn1)C(F)(F)F [Example 274, 4-cyclopropyl-N-((S)-1-oxo-1-((4-(((S)-2-oxo-4-(trifluoromethyl)imidazolidin-1-yl)methyl)pyridin-2-yl)amino)-3-((1,1,1-trifluoro-2-methylpropan-2-yl)oxy)propan-2-yl)-1,2,5-oxadiazole-3-carboxamide] | 75
CC(C)n1nccc1C(=O)N[C@H](C(=O)Nc1cc(C(NC(=O)CCC(F)(F)F)C2CC2)ccn1)[C@H]1CC[C@H](C)CC1 (stereo partly drawn) [Example 106, N-((1S)-2-((4-(cyclopropyl(4,4,4-trifluorobutanamido)methyl)pyridin-2-yl)amino)-1-((1r,4S)-4-methylcyclohexyl)-2-oxoethyl)-1-isopropyl-1H-pyrazole-5-carboxamide] | 31
C[C@H]1CC[C@@H]([C@H](NC(=O)c2nonc2C2CC2)C(=O)Nc2cc(CN3C[C@@H](C(F)(F)F)NC3=O)ccn2)CC1 [Example 263, 4-Cyclopropyl-N—((S)-1-((1s,4R)-4-methylcyclohexyl)-2-oxo-2-((4-(((S)-2-oxo-4-(trifluoromethyl)imidazolidin-1-yl)methyl)pyridin-2-yl)amino)ethyl)-1,2,5-oxadiazole-3-carboxamide] | 90
COCC(c1ccnc(NC(=O)C(NC(=O)C(F)(F)c2ccc(OC)nc2)C2CCC(C)CC2)c1)N1CC(C(F)(F)F)NC1=O (single isomer, unassigned) [Example 252] | 49
CCc1nocc1C(=O)N[C@H](C(=O)Nc1cc(CN2C[C@@H](C(F)(F)F)NC2=O)ccn1)C1CCC(F)(F)CC1 [Example 13, N-((S)-1-(4,4-difluorocyclohexyl)-2-oxo-2-((4-(((S)-2-oxo-4-(trifluoromethyl)imidazolidin-1-yl)methyl)pyridin-2-yl)amino)ethyl)-3-ethylisoxazole-4-carboxamide] | 122
CC(C)n1nccc1C(=O)N[C@@H](C(=O)Nc1cc(CN2C[C@H](C(F)(F)F)NC2=O)ccn1)[C@H]1CC[C@H](C)CC1 [Example 4, 1-isopropyl-N—((S)-1-((1r,4S)-4-methylcyclohexyl)-2-oxo-2-((4-(((S)-2-oxo-4-(trifluoromethyl)imidazolidin-1-yl)methyl)pyridin-2-yl)amino)ethyl)-1H-pyrazole-5-carboxamide] | 35
CCc1nocc1C(=O)N[C@H](C(=O)Nc1cc([C@@H](COC)N2CC(F)(F)CNC2=O)ccn1)C1CCC(F)(F)CC1 [Example 178, N-((S)-2-((4-((S)-1-(5,5-difluoro-2-oxotetrahydropyrimidin-1(2H)-yl)-2-methoxyethyl)pyridin-2-yl)amino)-1-(4,4-difluorocyclohexyl)-2-oxoethyl)-3-ethylisoxazole-4-carboxamide] | 53
CC(C)n1nccc1C(=O)N[C@H](C(=O)Nc1cc(C[C@H]2C[C@@H](C(F)(F)F)NC2=O)ccn1)C1CCC(F)(F)CC1 [Example 225, N-((S)-1-(4,4-difluorocyclohexyl)-2-oxo-2-((4-(((3S,5S)-2-oxo-5-(trifluoromethyl)pyrrolidin-3-yl)methyl)pyridin-2-yl)amino)ethyl)-1-isopropyl-1H-pyrazole-5-carboxamide] | 105
CCc1nonc1C(=O)N[C@H](C(=O)Nc1cc([C@@H](CC)N2C[C@@H](C(F)(F)F)NC2=O)ccn1)C1CCC(F)(F)CC1 [Example 209, N-((S)-1-(4,4-difluorocyclohexyl)-2-oxo-2-((4-((R)-1-((S)-2-oxo-4-(trifluoromethyl)imidazolidin-1-yl)propyl)pyridin-2-yl)amino)ethyl)-4-ethyl-1,2,5-oxadiazole-3-carboxamide] | 23
CCn1nccc1C(=O)N[C@H](C(=O)Nc1cc([C@@H](COC)N2C[C@@H](C(F)(F)F)NC2=O)ccn1)[C@H]1CCCC(F)(F)C1 (single isomer, unassigned) [Example 308] | 74
C[C@@H]1CNC(=O)N1Cc1ccnc(NC(=O)[C@@H](NC(=O)OC(C)(C)C)[C@H]2CC[C@H](C)CC2)c1 [Example 29, Tert-butyl ((S)-2-((4-(((R)-5-methyl-2-oxoimidazolidin-1-yl)methyl)pyridin-2-yl)amino)-1-((1r,4S)-4-methylcyclohexyl)-2-oxoethyl)carbamate] | 428
CCc1nocc1C(=O)N[C@H](C(=O)Nc1cc(O[C@H]2C[C@@H](C(F)(F)F)NC2=O)ccn1)[C@H]1CC[C@H](C)CC1 [Example 321, 3-ethyl-N—((S)-1-((1r,4S)-4-methylcyclohexyl)-2-oxo-2-((4-(((3S,5S)-2-oxo-5-(trifluoromethyl)pyrrolidin-3-yl)oxy)pyridin-2-yl)amino)ethyl)isoxazole-4-carboxamide] | 689
COCC(NC(=O)CCC(F)(F)F)c1ccnc(NC(=O)[C@@H](NC(=O)OC(C)(C)C)C2CCC(F)(F)CC2)c1 (single isomer, unassigned; diastereomer 1) [Example 131] | 680
Cc1nonc1C(=O)N[C@H](C(=O)Nc1cc(CN2C[C@@H](C(F)(F)F)NC2=O)c(F)cn1)[C@H]1CC[C@H](C)CC1 [Example 62, N-((S)-2-((5-fluoro-4-(((S)-2-oxo-4-(trifluoromethyl)-imidazolidin-1-yl)methyl)-pyridin-2-yl)amino)-1-((1r,4S)-4-methylcyclo-hexyl)-2-oxoethyl)-4-methyl-1,2,5-oxadiazole-3-carboxamide] | 1400
CCc1oncc1C(=O)NC(C(=O)Nc1cc([C@@H](COC)N2CC(F)(F)CNC2=O)ccn1)C1CCC(F)(F)CC1 (stereo in doubt) [Example 176, N—((S)-2-((4-((S)-1-(5,5-difluoro-2-oxotetrahydropyrimidin-1(2H)-yl)-2-methoxyethyl)pyridin-2-yl)amino)-1-(4,4-difluorocyclohexyl)-2-oxoethyl)-5-ethylisoxazole-4-carboxamide] | 57
